Assay results as given in patent US9078442B2, “Herbicidally and fungicidally active 3-phenylisoxazoline-5-carboxamides and 3-phenylisoxazoline-5-thioamides” (BAYER INTELLECTUAL PROPERTY GMBH, priority 2011, dated 2015).

Key:
[1] = test system: Peronospora parasitica; test: In vivo test Peronospora parasitica (downy mildew on cabbage), protective; settings: evaluation 5 days after infection
Experimental: In vivo test Peronospora parasitica (downy mildew on cabbage) To prepare an appropriate active compound formulation, the active compound is mixed with acetone/Tween/DMSO and the mixture is diluted with water to the desired concentration. Cabbage plants are cultivated in 50/50 peat/pozzolan soil in small pots at 18-20° C. and sprayed at the cotyledon stage at the respective stated application rates to test for protective activity. Control plants were treated in the same manner, but using an aqueous solution without any active compounds. 24 hours after the spraying, the plants were sprayed with a spore suspension of Peronospora parasitica (50 000 spores/ml). The plants were placed in a cabin at 20° C. in a humid atmosphere for 5 days.

[2] = test system: Mycosphaerella graminicola; test: In vivo test Mycosphaerella graminicola (wheat); settings: Mycosphaerella graminicola on wheat, evaluation 21-28 days after inoculation
Experimental: Wheat plants (cultivar: (Scipion) are cultivated in 50/50 peat pozzolan substrate at 12° C. and sprayed at the 1-leaf stage with the active compound preparation as given in Example A. After 24 hours, the plants are sprayed with a spore suspension of Mycosphaerella graminicola (500 000 spores/ml).

[3] = test system: Alternaria brassicae; test: In vivo test Alternaria brassicae (salad radish); design: concentration or dose not given beside the values; settings: Alternaria brassicae on salad radish, application rate not given, evaluation 6-7 days after inoculation
Experimental: Salad radish (cultivar Pernot) are cultivated in 50/50 peat pozzolan substrate at 18-20° C. and sprayed at the cotyledon stage with the active compound preparation given above. After 24 hours, the plants are sprayed with a spore suspension of Alternaria brassicae (40 000 spores/cm3). The inoculated plants are placed at 18° C. and in a humid atmosphere for 6-7 days. […] At an application rate of g/ha, the following efficacies are found for the following compounds.

[4] = test system: Botrytis cinerea; test: In vivo test Botrytis cinerea (gray mold on cucumbers); settings: Botrytis cinerea on cucumber, evaluation 5-7 days after infection
Experimental: Cucumber plants (Vert petit de Paris) are cultivated in 50/50 peat pozzolan substrate at 20-25° C. and sprayed at the Z16 stage with the active compound preparation given in Example 1. After 24 hours, the upper sides of the leaves of the plants are sprayed with a spore suspension of Botrytis cinerea (150 000 spores/ml). The spores of a 15-day old culture are collected and suspended in a nutrient solution consisting of • 20 g/l of gelatin; • 50 g/l of D-fructose; • 2 g/l of NH4NO3; • 1 g/L of KH2PO4. The inoculated cucumber plants are placed at 15-11° C. (day/night) and at 80% relative atmospheric humidity for 5-7 days.

Row | Compound | Activity [%] (efficacy) ([1]; application rate 500 g/ha) | Activity [%] (efficacy) ([2]; application rate 500 g/ha) | also measured
1 | CC1(C(=O)NCC2CCCO2)CC(c2cc(Cl)cc(Cl)c2)=NO1 (mixture of isomers) [Example 6.470] | 71 | 100 | 
2 | C#CC(C)NC(=O)C1(C)CC(c2cc(Cl)cc(Cl)c2)=NO1 (single isomer, unassigned) [Example 6.216] | 75 |  | Activity [%] (efficacy) [3]: 82%
3 | CCn1cc(NC(=O)C2(C)CC(c3cc(Cl)cc(Cl)c3)=NO2)c(C)n1 (centres unmarked) [Example 1.017] |  | 88 | 
4 | COC(=O)Cc1cccc(NC(=O)C2(C)CC(c3cc(Cl)cc(Cl)c3)=NO2)c1 (centres unmarked) [Example 1.035] |  | 91 | Activity [%] (efficacy) ([4]; application rate 500 g/ha): 89%
5 | CC1(C(=O)Nc2cccc(CC(=O)O)c2)CC(c2cc(Cl)cc(Cl)c2)=NO1 (centres unmarked) [Example 1.036] |  | 73 | 
6 | CCOC(=O)Cc1ccc(NC(=O)C2(C)CC(c3cc(Cl)cc(Cl)c3)=NO2)cc1 (centres unmarked) [Example 1.057] |  | 91 | 
7 | COC(=O)c1ccc(NC(=O)C2(C)CC(c3cc(Cl)cc(Cl)c3)=NO2)cc1 (centres unmarked) [Example 1.060] |  |  | Activity [%] (efficacy) ([4]; application rate 500 g/ha): 100%
8 | CC1(C(=O)Nc2ccc(C(=O)O)cc2)CC(c2cc(Cl)cc(Cl)c2)=NO1 (centres unmarked) [Example 1.064] | 95 | 75 | Activity [%] (efficacy) ([4]; application rate 500 g/ha): 100%
9 | Cc1nn(C)c(C)c1CNC(=O)C1(C)CC(c2cc(Cl)cc(Cl)c2)=NO1 (centres unmarked) [Example 1.108] | 100 |  | 
10 | Cc1nn(C)cc1CNC(=O)C1(C)CC(c2cc(Cl)cc(Cl)c2)=NO1 (centres unmarked) [Example 1.116] | 100 |  | 
11 | Cc1cc(CNC(=O)C2(C)CC(c3cc(F)cc(F)c3)=NO2)n(C)n1 (centres unmarked) [Example 1.120] | 99 |  | 
12 | Cc1c(CNC(=O)C2(C)CC(c3cc(Cl)cc(Cl)c3)=NO2)cnn1C (centres unmarked) [Example 1.138] | 98 | 75 | 
13 | CCn1cc(CNC(=O)C2(C)CC(c3cc(C)cc(Cl)c3)=NO2)c(C)n1 (centres unmarked) [Example 1.181] | 100 | 85 | Activity [%] (efficacy) ([4]; application rate 500 g/ha): 70%
14 | CCn1cc(CNC(=O)C2(C)CC(c3cc(C(F)(F)F)cc(C(F)(F)F)c3)=NO2)c(C)n1 (centres unmarked) [Example 1.224] | 99 | 95 | 
15 | Cn1nccc1CNC(=O)C1(C)CC(c2cc(Cl)cc(Cl)c2)=NO1 (centres unmarked) [Example 1.291] |  |  | Activity [%] (efficacy) ([1]; application rate 1200 g/ha): 88%
16 | CC1(C(=O)NCc2ccccc2C(=O)O)CC(c2cc(Cl)cc(Cl)c2)=NO1 (centres unmarked) [Example 1.315] |  | 100 | 
17 | CCn1cc(CNC(=O)C2(C)CC(c3cc(Cl)cc(Cl)c3)=NO2)c(Cl)n1 (centres unmarked) [Example 1.339] | 100 | 85 | 
18 | CC(C)n1cc(CNC(=O)C2(C)CC(c3cc(F)cc(F)c3)=NO2)c(Cl)n1 (centres unmarked) [Example 1.340] | 97 | 88 | 
19 | CC(C)n1cc(CNC(=O)C2(C)CC(c3cccc(F)c3)=NO2)c(Cl)n1 (centres unmarked) [Example 1.341] | 95 |  | 

Row | Compound | Activity [%] (efficacy) ([1]; application rate 500 g/ha) | Activity [%] (efficacy) ([2]; application rate 500 g/ha) | also measured
20 | CC(C)n1cc(CNC(=O)C2(C)CC(c3cc(Cl)cc(Cl)c3)=NO2)c(Cl)n1 (centres unmarked) [Example 1.343] | 99 | 92 | 
21 | CC1(C(=O)NCc2nc(C3CC3)no2)CC(c2cc(Cl)cc(Cl)c2)=NO1 (centres unmarked) [Example 1.352] | 83 |  | 
22 | Cc1n[nH]cc1CNC(=O)C1(C)CC(c2cc(F)cc(F)c2)=NO1 (centres unmarked) [Example 1.363] | 71 |  | 
23 | CC1(C(=O)NCc2nc(C(F)(F)F)cs2)CC(c2cc(Cl)cc(Cl)c2)=NO1 (centres unmarked) [Example 1.379] | 96 |  | 
24 | Cc1cc(CNC(=O)C2(C)CC(c3cc(Cl)cc(Cl)c3)=NO2)no1 (centres unmarked) [Example 1.421] |  | 87 | 
25 | CC1(C(=O)NCc2ccncc2)CC(c2cc(Cl)cc(Cl)c2)=NO1 (centres unmarked) [Example 1.458] |  |  | Activity [%] (efficacy) ([1]; application rate 1200 g/ha): 81%
26 | CC1(C(=O)NCc2ncccn2)CC(c2cc(Cl)cc(Cl)c2)=NO1 (centres unmarked) [Example 1.459] |  | 100 | 
27 | CC1(C(=O)NCCc2ccccn2)CC(c2cc(Cl)cc(Cl)c2)=NO1 (centres unmarked) [Example 1.676] | 85 |  | 
28 | CC1(C(=O)NCCCn2cccn2)CC(c2cc(Cl)cc(Cl)c2)=NO1 (centres unmarked) [Example 1.903] | 85 | 97 | 
29 | CCC1(C(=O)Nc2cc(C)nn2C)CC(c2cc(Cl)cc(Cl)c2)=NO1 (centres unmarked) [Example 2.003] |  |  | Activity [%] (efficacy) ([1]; application rate 1200 g/ha): 90%
30 | CCn1cc(CNC(=O)C2(CC)CC(c3cc(Cl)cc(Cl)c3)=NO2)c(C)n1 (centres unmarked) [Example 2.163] | 100 | 96 | 
31 | CCCn1cc(CNC(=O)C2(CC)CC(c3cc(Cl)cc(Cl)c3)=NO2)c(C)n1 (centres unmarked) [Example 2.257] | 99 | 79 | 
32 | CCn1cc(CNC(=O)C2(C(F)(F)F)CC(c3cc(Cl)cc(Cl)c3)=NO2)c(C)n1 (centres unmarked) [Example 3.161] | 100 |  | 
33 | CCn1cc(CNC(=O)C2(C(F)(F)F)CC(c3ccc(F)c(Cl)c3)=NO2)c(C)n1 (centres unmarked) [Example 3.170] | 94 |  | 
34 | CCn1cc(CNC(=O)C2(COC)CC(c3cc(Cl)cc(Cl)c3)=NO2)c(C)n1 (centres unmarked) [Example 5.029] | 87 |  | 
35 | CNC(=O)C1(C)CC(c2cc(Br)cc(Br)c2)=NO1 (centres unmarked) [Example 6.022] |  | 98 | 
36 | CC1(C(=O)NC2CC2)CC(c2cc(Cl)cc(Cl)c2)=NO1 (centres unmarked) [Example 6.054] |  | 100 | Activity [%] (efficacy) [3]: 94%
37 | CC1(C(=O)NC2CC2)CC(c2cc(Cl)cc(Br)c2)=NO1 (centres unmarked) [Example 6.064] |  | 100 | Activity [%] (efficacy) [3]: 91%
38 | Cc1cc(Cl)cc(C2=NOC(C)(C(=O)NC3CC3)C2)c1 (centres unmarked) [Example 6.072] |  | 98 | 

Row | Compound | Activity [%] (efficacy) ([1]; application rate 500 g/ha) | Activity [%] (efficacy) ([2]; application rate 500 g/ha) | also measured
39 | COCC#CC(C)(C)NC(=O)C1(C)CC(c2cc(Cl)cc(Cl)c2)=NO1 (centres unmarked) [Example 6.115] | 100 |  | 
40 | CC(C)NC(=O)C1(C)CC(c2cc(Br)cc(C(F)(F)F)c2)=NO1 (centres unmarked) [Example 6.184] |  | 100 | 
41 | CC(C)NC(=O)C1(C)CC(c2cc(F)cc(Cl)c2)=NO1 (centres unmarked) [Example 6.190] |  |  | Activity [%] (efficacy) ([1]; application rate 1200 g/ha): 100%
42 | COc1cc(Cl)cc(C2=NOC(C)(C(=O)NC(C)C)C2)c1 (centres unmarked) [Example 6.191] |  |  | Activity [%] (efficacy) ([4]; application rate 1200 g/ha): 100%
43 | Cc1cc(Cl)cc(C2=NOC(C)(C(=O)NC(C)C)C2)c1 (centres unmarked) [Example 6.192] | 96 | 97 | 
44 | CC1(C(=O)NCC(F)(F)F)CC(c2cc(Cl)cc(Cl)c2)=NO1 (centres unmarked) [Example 6.377] |  | 100 | Activity [%] (efficacy) [3]: 77%
45 | Cc1cc(Cl)cc(C2=NOC(C)(C(=O)NCC(F)(F)F)C2)c1 (centres unmarked) [Example 6.386] |  | 100 | 
46 | CCNC(=O)C1(C)CC(c2cc(C)cc(Cl)c2)=NO1 (centres unmarked) [Example 6.412] |  | 100 | 
47 | CC1(C(=O)NCC2CCCCC2)CC(c2cc(Cl)cc(Cl)c2)=NO1 (centres unmarked) [Example 6.430] |  | 81 | 
48 | CCOP(=O)(CNC(=O)C1(C)CC(c2cc(Cl)cc(Cl)c2)=NO1)OCC (centres unmarked) [Example 6.433] | 100 |  | 
49 | CCOC(=O)C(C)CNC(=O)C1(C)CC(c2cc(Cl)cc(Cl)c2)=NO1 (centres unmarked) [Example 6.480] |  | 88 | 
50 | CCOC(=O)CCNC(=O)C1(C)CC(c2cc(Cl)cc(Cl)c2)=NO1 (centres unmarked) [Example 6.566] |  | 98 | 
51 | CC(C)(C)OC(=O)CCNC(=O)C1(C)CC(c2cc(Cl)cc(Cl)c2)=NO1 (centres unmarked) [Example 6.656] | 92 | 98 | 
52 | CCOCCCNC(=O)C1(C)CC(c2cc(Cl)cc(Cl)c2)=NO1 (centres unmarked) [Example 6.681] |  |  | Activity [%] (efficacy) ([1]; application rate 1200 g/ha): 97%
53 | CCC1(C(=O)NC(C)C)CC(c2cc(Cl)cc(Cl)c2)=NO1 (centres unmarked) [Example 7.161] |  |  | Activity [%] (efficacy) ([1]; application rate 1200 g/ha): 97%; Activity [%] (efficacy) ([4]; application rate 1200 g/ha): 100%; Activity [%] (efficacy) ([2]; application rate 1200 g/ha): 85%
54 | CCC1(C(=O)NCC(F)(F)F)CC(c2cc(Cl)cc(Cl)c2)=NO1 (centres unmarked) [Example 7.359] |  | 100 | Activity [%] (efficacy) [3]: 86%
55 | CNC(=O)C1(C(F)(F)F)CC(c2cc(Cl)cc(Cl)c2)=NO1 (centres unmarked) [Example 8.025] | 100 |  | 
56 | O=C(NC1CC1)C1(C(F)(F)F)CC(c2cc(Cl)cc(Cl)c2)=NO1 (centres unmarked) [Example 8.052] |  |  | Activity [%] (efficacy) ([1]; application rate 1200 g/ha): 100%
57 | CC(C)NC(=O)C1(C2CC2)CC(c2cc(Cl)cc(Cl)c2)=NO1 (centres unmarked) [Example 10.032] |  |  | Activity [%] (efficacy) ([1]; application rate 1200 g/ha): 96%
